Experiments:
Type in all cases: cell-based
[1] = target: T1, ATR (Homo sapiens, UniProt Q13535); test: ATR (pCHK1 Ser345) imaging assay in 4NQO-treated HT29 cells; conditions: geometric mean; Supplementary Table 1; read-out: Compound IC50 ATR
T1 construct: ATR (pCHK1 Ser345) in HT29; endogenous in cells; host or cells: HT-29
Protocol: HT-29 cells by an imaging-based assay. HT-29 cells were dispensed into 384-well Greiner plates (#781090) to give 6000 cells/well in a total volume of 40 µL cell media and incubated overnight. Test compounds and reference controls were dosed directly into the cell plates using a Labcyte Echo 555 acoustic dispenser. The cell plates were then incubated for 1 hour at 37°C before being dosed with 3 µM of 4NQO using a Labcyte Echo 555 acoustic dispenser. The cells were incubated for a further 1 h our and were then fixed by the addition of 20 µL 3.7% formaldehyde in PBS and incubated for 20 min utes at RT. The plates were subsequently washed on a Bioteck EL406 3x using PBS-T, and then permeabilized with the addition of 20 µL of 0.1% Triton X-100 in PBS for 10 minutes at RT. Following permeabilization, the plates were washed 3x with PBST and incubated with 20 µL of primary antibody (1:250 anti-Chk1 pSer345 in PBS-T) overnight at 4°C. The next day, the plates were washed 3x with PBS and incubated with 20 µL of secondary antibody (1:500 AlexaFluor 488 goat anti-rabbit IgG and 1:5000 Hoechst stock solution [10 mg/mL ] in antibody buffer) for 2 hours at RT. Following this final incubation, the plates were washed 3x with PBS, sealed with black plate seals and then read on a CellInsight imaging platform (Thermo Scientific) with 10x objective. A two -laser setup was used to analyse nuclear staining with Hoechst (405 nm) and secondary antibody staining of pChk1 (488 nm). […]

[2] = target: T2, ATM (Homo sapiens, UniProt Q13315); test: ATM pSer1981 imaging assay in irradiated HT29 cells; conditions: geometric mean; Supplementary Table 1; read-out: Compound IC50 ATM
T2 construct: ATM (pATM Ser1981) in HT29; endogenous in cells; host or cells: HT-29
Protocol: Following this final incubation, the plates were washed twice using PBS, s ealed with black plate seals and then read on a CellInsight™ imaging platform (Thermo Scientific) with 10x objective. A two-laser setup was used to analyse nuclear staining with Hoechst (405 nm) and secondary antibody staining of pATM (488 nm). […]

[3] = target: T3, PI3Kγ (Mus musculus, UniProt Q9JHG7); test: PI3K isoform assay, pAKT Thr308 ELISA in RAW-264 cells; conditions: geometric mean; Supplementary Table 1; read-out: Compound IC50 PI3K (third PI3K line)
T3 construct: RAW-264 (PI3Kγ); endogenous in cells; host or cells: RAW-264
Protocol: (§1) BT474 (PI3Kα), MDA-MB-468 (PI3Kβ), RAW-264 (PI3Kγ) and JEKO-1 (PI3Kδ). Levels of phospho-AKT Thr308, a downstream target for PI3K, was used as a marker of PI3K […]
RAW-264 and JEKO-1 cells were seeded directly into 384-well plates containing compounds (1 x 10^5 cells/well) and incubated for 1 hour. Compounds were added to cells/plates using an Echo 555 Liquid Handler (LabCyte). […]
(§2) X-100) for 30 minutes at RT. To stimulate AKT phosphorylation, C5a (complement 5a) anaphylatoxin trifluoroacetate salt (20 nM; Bachem) was added to RAW-264 cells for 3 minutes and anti-human IgM (120 µg/mL; Stratech) was added to JEKO-1 cells for 10 minutes prior to cell lysis. RAW-264 and JEKO-1 cells were then lysed for 30 minutes at RT. Lysates were transferred onto ELISA plates pre-coated with anti-AKT antibody (Cell Signalling #7144) that had previously been blocked with 1% BSA in PBS-T and incubated overnight at 4°C. Plates were then incubated with mouse anti-phosphoAKT Thr308 (Cell Signalling Technology #7144) for 2 hours, followed by an anti-mouse HRP-conjugated antibody (Cell Signalling Technology #7144) for 2 hours. Plates were washed between antibody incubation steps with PBS-T. QuantaBlu substrate working solution […]
(§3) (ThermoScientific #15169) was added to each well according to the manufacturer’s instructions and stop solution was added 60 minutes later. Fluorescence was measured

[4] = target: T4, DNA-PKcs (Homo sapiens, UniProt P78527); test: DNA-PKcs autophosphorylation (pSer2056) ELISA in IR-treated A549 cells; conditions: geometric mean; Supplementary Table 1; read-out: Compound IC50 DNA-PKcs
T4 construct: evaluated in A549 cells following IR by measuring DNA-PKcs autophosphorylation on Ser2056; endogenous in cells; host or cells: A549

[5] = tested on: secondary pharmacology target; test: Cellular selectivity across secondary pharmacology targets; conditions: versus cellular DNA-PKcs
[6] = target: PI3Kα (Homo sapiens, UniProt P42336); test: PI3K isoform assay, pAKT Thr308 ELISA in BT474 cells; conditions: geometric mean; Supplementary Table 1; read-out: Compound IC50 PI3K (first PI3K line)
Sequence of PI3Kα (P42336 187-1068 limits assumed): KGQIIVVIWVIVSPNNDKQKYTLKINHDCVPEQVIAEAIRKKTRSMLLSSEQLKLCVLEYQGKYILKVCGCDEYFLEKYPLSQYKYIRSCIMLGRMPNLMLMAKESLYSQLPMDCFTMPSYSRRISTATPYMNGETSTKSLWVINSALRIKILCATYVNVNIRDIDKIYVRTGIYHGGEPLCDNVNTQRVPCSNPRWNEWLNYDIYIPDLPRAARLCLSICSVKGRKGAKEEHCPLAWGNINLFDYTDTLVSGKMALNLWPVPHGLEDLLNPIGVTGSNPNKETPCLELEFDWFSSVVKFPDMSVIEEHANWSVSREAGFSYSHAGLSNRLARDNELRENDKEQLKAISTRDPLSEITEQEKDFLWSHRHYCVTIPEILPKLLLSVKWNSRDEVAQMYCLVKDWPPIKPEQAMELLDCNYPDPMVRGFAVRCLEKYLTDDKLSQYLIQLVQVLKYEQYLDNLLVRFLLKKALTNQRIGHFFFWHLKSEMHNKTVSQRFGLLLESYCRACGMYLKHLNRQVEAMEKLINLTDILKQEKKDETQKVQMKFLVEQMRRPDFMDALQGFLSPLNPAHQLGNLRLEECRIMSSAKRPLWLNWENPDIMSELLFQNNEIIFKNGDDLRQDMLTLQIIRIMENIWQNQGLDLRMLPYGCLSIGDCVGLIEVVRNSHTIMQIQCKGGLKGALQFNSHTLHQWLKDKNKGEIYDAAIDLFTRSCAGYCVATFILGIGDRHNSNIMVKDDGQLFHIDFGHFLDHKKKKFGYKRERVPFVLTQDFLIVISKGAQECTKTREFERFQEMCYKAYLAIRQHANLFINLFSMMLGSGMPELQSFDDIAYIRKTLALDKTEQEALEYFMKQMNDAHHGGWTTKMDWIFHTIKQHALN
Protocol: as §1
(§4) BT474 and MDA -MB-468 cells were seeded into 384-well plates
(§5) (5600 cells/well) and incubated overnight prior to compound treatment for 2 hours. […]
(§6) Compounds were added to […]
(§7) cells/plates using an Echo 555 Liquid Handler (LabCyte). BT474 and MDA -MB-468 cells were lysed in 25 µL lysis buffer (25 mM Tris-HCl, 3 mM EDTA, 3 mM EGTA, 50 mM NaF, 2 mM Na3VO4, 0.27 M sucrose, 10 mM β-glycerophosphate, 5 mM Na2P2O7, 0.5% Triton […]
(§8) X-100) for 30 minutes at RT. […]
(§9) Lysates were transferred onto ELISA plates pre-coated with anti-AKT antibody (Cell Signalling #7144) that had previously been blocked with 1% BSA in PBS-T and incubated overnight at 4°C. Plates were then incubated with mouse anti-phosphoAKT Thr308 (Cell Signalling Technology #7144) for 2 hours, followed by an anti-mouse HRP-conjugated antibody (Cell Signalling Technology #7144) for 2 hours. Plates were washed between antibody incubation steps with PBS-T. QuantaBlu substrate working solution […]
as §3

[7] = target: T5, mTOR (Homo sapiens, UniProt P42345); test: mTOR (pAKT Ser473) imaging assay in MDA-MB-468 cells; conditions: geometric mean; Supplementary Table 1; read-out: Compound IC50 mTOR
T5 construct: mTOR (pAKT Ser473) in MDA-MB-468; endogenous in cells; host or cells: MDA-MB-468

[8] = target: T6, PI3Kδ (Homo sapiens, UniProt O00329); test: PI3K isoform assay, pAKT Thr308 ELISA in JEKO-1 cells; conditions: geometric mean; Supplementary Table 1; read-out: Compound IC50 PI3K (fourth PI3K line)
T6 construct: JEKO-1 (PI3Kδ) cells; endogenous in cells; host or cells: JEKO-1
Protocol: as §1
as §7, with “RAW-264 and JEKO-1 cells were seeded directly into 384-well plates containing compounds (1 x 10^5 cells/well) and incubated for 1 hour. Compounds were added to cells/plates” for “cells/plates”
as §8
as §2, with “3” for “X-100) for 30 minutes at RT. To stimulate AKT phosphorylation, C5a (complement 5a) anaphylatoxin trifluoroacetate salt (20 nM; Bachem) was added to RAW-264 cells for 3”, “hours.” for “hours. Plates were washed between antibody incubation steps with PBS-T. QuantaBlu substrate working solution”
as §3

[9] = target: T7, PI3Kβ (Homo sapiens, UniProt P42338); test: PI3K isoform assay, pAKT Thr308 ELISA in MDA-MB-468 cells; conditions: geometric mean; Supplementary Table 1; read-out: Compound IC50 PI3K (second PI3K line)
T7 construct: MDA-MB-468 (PI3Kβ); endogenous in cells; host or cells: MDA-MB-468
Protocol: as §1, §4, §5, §6, §7, §8, §9, §3

T1 sequence (Q13535 whole entry): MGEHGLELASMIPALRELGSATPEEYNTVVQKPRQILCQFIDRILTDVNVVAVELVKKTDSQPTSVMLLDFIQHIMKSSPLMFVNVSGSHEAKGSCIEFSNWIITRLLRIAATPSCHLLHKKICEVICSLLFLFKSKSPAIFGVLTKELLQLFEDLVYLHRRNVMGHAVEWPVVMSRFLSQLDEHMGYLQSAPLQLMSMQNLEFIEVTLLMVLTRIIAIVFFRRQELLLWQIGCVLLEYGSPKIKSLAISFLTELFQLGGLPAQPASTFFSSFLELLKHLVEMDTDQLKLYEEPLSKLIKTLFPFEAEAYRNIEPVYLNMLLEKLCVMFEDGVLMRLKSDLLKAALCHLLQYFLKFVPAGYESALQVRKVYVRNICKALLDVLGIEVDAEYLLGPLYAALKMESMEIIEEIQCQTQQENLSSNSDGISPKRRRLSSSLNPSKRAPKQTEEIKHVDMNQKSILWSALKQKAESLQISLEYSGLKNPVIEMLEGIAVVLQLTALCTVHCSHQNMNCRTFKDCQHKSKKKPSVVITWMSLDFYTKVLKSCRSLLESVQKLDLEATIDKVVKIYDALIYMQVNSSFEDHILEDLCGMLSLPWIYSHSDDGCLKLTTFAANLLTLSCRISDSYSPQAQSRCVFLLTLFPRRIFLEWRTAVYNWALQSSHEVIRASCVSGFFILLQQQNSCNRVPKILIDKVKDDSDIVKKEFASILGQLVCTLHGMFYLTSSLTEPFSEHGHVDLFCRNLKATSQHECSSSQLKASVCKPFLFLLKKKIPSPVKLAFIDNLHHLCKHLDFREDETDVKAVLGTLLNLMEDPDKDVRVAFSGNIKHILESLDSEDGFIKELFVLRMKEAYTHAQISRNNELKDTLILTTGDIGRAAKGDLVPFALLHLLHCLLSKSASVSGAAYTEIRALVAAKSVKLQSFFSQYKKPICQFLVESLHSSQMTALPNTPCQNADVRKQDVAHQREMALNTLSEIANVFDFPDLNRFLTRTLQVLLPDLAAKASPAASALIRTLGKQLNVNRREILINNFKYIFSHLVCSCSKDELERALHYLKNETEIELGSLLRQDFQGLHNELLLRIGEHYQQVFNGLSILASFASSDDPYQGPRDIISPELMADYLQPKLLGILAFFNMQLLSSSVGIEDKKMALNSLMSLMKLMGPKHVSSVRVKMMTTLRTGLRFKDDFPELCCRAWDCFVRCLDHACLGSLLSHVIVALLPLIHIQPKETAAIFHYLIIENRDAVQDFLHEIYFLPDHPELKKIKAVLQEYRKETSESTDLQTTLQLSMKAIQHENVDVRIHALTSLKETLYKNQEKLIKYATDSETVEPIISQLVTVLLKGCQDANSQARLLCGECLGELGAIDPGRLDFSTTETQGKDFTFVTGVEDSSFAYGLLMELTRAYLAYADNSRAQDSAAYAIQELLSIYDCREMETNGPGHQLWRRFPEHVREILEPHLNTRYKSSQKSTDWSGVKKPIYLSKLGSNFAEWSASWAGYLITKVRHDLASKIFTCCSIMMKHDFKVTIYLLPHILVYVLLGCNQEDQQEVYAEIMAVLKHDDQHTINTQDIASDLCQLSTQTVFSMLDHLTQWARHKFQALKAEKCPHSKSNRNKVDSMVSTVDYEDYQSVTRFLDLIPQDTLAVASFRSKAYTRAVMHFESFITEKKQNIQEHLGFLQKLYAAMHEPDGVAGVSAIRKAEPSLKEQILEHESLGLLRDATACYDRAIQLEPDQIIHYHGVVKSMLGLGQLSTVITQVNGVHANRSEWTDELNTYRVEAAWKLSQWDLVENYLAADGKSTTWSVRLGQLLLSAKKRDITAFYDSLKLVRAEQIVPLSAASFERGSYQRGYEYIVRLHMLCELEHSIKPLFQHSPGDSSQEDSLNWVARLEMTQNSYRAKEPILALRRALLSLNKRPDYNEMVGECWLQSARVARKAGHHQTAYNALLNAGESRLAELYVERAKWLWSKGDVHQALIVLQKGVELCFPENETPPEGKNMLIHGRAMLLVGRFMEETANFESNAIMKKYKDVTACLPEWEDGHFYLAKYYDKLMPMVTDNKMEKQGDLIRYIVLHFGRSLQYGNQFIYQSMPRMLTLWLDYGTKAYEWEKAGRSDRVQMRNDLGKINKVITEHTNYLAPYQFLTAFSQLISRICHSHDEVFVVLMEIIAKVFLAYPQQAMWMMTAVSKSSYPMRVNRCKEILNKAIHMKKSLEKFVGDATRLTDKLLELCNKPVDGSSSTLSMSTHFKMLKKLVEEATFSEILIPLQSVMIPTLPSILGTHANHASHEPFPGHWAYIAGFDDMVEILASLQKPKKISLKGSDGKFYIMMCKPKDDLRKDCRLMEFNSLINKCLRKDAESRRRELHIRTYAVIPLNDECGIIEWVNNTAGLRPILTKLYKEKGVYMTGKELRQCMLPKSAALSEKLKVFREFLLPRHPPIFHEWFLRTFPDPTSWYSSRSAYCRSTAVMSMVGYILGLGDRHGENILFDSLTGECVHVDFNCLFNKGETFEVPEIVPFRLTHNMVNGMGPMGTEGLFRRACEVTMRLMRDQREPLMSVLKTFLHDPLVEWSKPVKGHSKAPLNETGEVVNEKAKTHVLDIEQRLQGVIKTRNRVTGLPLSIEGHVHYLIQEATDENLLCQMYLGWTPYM
T1 sequence (Q8WXE1 whole entry partner): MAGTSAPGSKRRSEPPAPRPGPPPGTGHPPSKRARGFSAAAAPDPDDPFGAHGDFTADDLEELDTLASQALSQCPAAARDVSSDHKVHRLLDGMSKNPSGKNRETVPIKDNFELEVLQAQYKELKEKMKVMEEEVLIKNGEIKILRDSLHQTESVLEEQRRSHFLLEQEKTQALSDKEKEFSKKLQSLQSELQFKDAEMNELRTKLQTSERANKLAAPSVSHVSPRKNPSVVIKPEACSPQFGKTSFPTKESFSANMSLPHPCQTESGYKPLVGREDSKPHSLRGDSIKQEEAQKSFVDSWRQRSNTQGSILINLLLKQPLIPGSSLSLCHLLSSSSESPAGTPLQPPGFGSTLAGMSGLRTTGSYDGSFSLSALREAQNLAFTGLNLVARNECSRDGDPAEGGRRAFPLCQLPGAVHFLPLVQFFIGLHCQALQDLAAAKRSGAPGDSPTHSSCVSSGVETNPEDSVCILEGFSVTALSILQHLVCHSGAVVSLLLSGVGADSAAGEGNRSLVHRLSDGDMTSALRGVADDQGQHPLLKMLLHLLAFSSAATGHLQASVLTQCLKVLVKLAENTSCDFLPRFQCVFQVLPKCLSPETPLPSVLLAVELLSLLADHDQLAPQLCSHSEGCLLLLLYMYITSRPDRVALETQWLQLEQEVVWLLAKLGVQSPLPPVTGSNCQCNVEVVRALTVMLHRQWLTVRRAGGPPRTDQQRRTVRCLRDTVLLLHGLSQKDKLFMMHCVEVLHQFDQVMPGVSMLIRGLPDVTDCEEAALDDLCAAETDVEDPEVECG

`COc1ccc([C@@H](O)c2cc(-c3ncnc4cc(N5CCOCC5)ccc34)c(F)cc2Cl)nn1` [M3814] gave an IC50 [1] greater than 30 µM, an IC50 [2] greater than 30 µM and an IC50 [3] of 1.59 µM.
With `CCN1CCN(CC(=O)Nc2ccc(-c3cccc4c(=O)cc(N5CCOCC5)oc34)c3sc4ccccc4c23)CC1` [KU-0060648] the IC50 [1] was greater than 30 µM, the IC50 [4] was 0.055 µM and the “selectivity in at least one secondary pharmacology target” value [5] was less than 10 fold. It also gave an IC50 [2] greater than 30 µM, an IC50 [6] of 0.2 µM and an IC50 [7] of 0.15 µM.
In the case of `O=c1cc(N2CCOCC2)oc2c(-c3cccc4c3sc3ccccc34)cccc12` [NU7441], the IC50 [1] is reported as greater than 30 µM, the IC50 [4] is reported as 0.185 µM and the “selectivity in at least one secondary pharmacology target” value [5] is reported as less than 10 fold. The IC50 [2] was greater than 3.1 µM, the IC50 [6] was 7.8 µM and the IC50 [7] was 1.8 µM.
In the case of `CNC(=O)c1ccnc2c([C@H](C)CNc3cc(-c4cnc(C)nc4)ncn3)cccc12` [M9831/VX-984], the IC50 [8] is reported as greater than 30 µM, the IC50 [1] is reported as greater than 30 µM and the IC50 [4] is reported as 0.115 µM. The IC50 [9] was greater than 30 µM, the IC50 [2] was greater than 30 µM and the IC50 [6] was greater than 20 µM. For the same compound, the IC50 [3] was 7.1 µM and the IC50 [7] was greater than 30 µM.

From paper PMC6838110 (Nature Communications, 2019)
